The target in this experiment is Mitogen-activated protein kinase 14 (Mus musculus, UniProt P47811). In words: UV-Thermal Melt. Here is the method: UV thermal melt experiments were carried out in a quartz cuvette loaded with sample containing enzyme and each test compound using a spectrophotometer. For each measurement, absorbance data at 230 nm was collected as the temperature was scanned from 25 to 80 C at a ramp rate of 0.2 C /min. The melting temperature (Tm) for each sample was calculated as the maximum deflection point of the first derivative of the melting transition.
Mitogen-activated protein kinase 14, sequence (P47811 whole entry): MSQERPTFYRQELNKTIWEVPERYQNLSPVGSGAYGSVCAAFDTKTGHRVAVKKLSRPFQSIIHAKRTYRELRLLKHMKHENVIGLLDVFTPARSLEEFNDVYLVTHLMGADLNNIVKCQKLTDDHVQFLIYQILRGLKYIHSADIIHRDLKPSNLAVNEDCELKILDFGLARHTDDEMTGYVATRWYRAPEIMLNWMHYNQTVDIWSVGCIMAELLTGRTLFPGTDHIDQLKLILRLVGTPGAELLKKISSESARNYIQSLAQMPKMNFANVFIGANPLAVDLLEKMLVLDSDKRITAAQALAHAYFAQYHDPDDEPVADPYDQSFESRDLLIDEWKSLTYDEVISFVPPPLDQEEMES

This passage reports Kd results from BindingDB's records for doi:10.1021/jm030121k (Boehringer Ingelheim Pharmaceuticals, 2003).

The term Kd denotes the equilibrium constant for the complex coming apart. Higher therefore signals weaker binding.

Consider `Cc1ccc(-n2nc(C(C)(C)C)cc2NC(=O)Nc2cccc3ccccc23)cc1` [BIRB-796 Analog 4], for which the Kd was 11 nM.
